Results: patent US5234934A, “Aminopropanol derivatives, process for their preparation and pharmaceutical compositions comprising the same” (priority 1989, dated 1993)

Assays:
[1] = system: aconitine-induced ECG alterations; test: animal or person; assay type: in vivo, rat; settings: Rattus norvegicus; for change in vivo at 100 mg/kg: po; for change in vivo at 100 mg/kg / change in vivo at 4 mg/kg: read-out: Effect % (antiarrhythmic); for ED50 / change in vivo at 4 mg/kg: iv; for ED50: read-out: ED50 iv. (antiarrhythmic)
Description: The test was carried out by using the modified method of Marmo et al. on rats weighing 160 to 200 g. The animals were narcotised by ethyl uretane (1.2 g/kg ip.). Aconitin was administered intravenously in a dose of 75 /ug/kg in the form of a bolus injection. The ECG alterations were monitored in standard II lead by 5 minutes after the administration of aconitine. The observed alterations were classified into classes 0 to 5. The compounds of the invention were administered 2 minutes or 60 minutes before the parenteral or oral administration of aconitine, respectively. […]
class 1: sometimes an extrasystole occurs class 2: each second one is an extrasystole class 3: extrasystoles in groups class 4: each one is an extrasystole class 5: fibrillation, death
(Marmo, E., DiGiacomo, S., Imperatore, A.: Arzeimittel-Forschung 20, 12/1970/)

[2] = system: hexobarbital narcosis; test: narcosis potentiating effect (hexobarbital sleeping time); settings: for ED50: Mus musculus, po, read-out: ED50 (narcosis potentiation); for TI (therapeutic index): narcosis potentiation, mice, po.
Description: The narcosis potentiating effect of the compounds of the invention were examined on white mice, with 6 animals in each group. The mice were administered orally with the compounds of the invention, then both the control and the test groups were intravenously added 40 mg/kg of hexobarbital in order to make the mice sleep (Kaergard et al.).

[3] = acute toxicity test in mice (Litchfield and Wilcoxon); assay type: in vivo, mouse; settings: mouse, in vivo, po., 14 days observation
Description: The test for acute toxicity was carried out by using 10 white mice (CFLP strain) (both male and female), weighing 18 to 22 g in each dose group. The compounds of the invention were administered orally in a dose of 20 ml/kg.
The animals were kept in a plastic box on wood chips in a room of room temperature. They could consume tap water and standard mouse feed ad libitum. The toxicity data were determined by the method of Litchfield and Wilcoxon (Litchfield, J. T., Wilcoxon, F. W.: J. Pharmacol. Exp. Ther. 96, 99/1949/).

Work on `CC(C)NCC(O)COc1cccc2[nH]ccc12` (centres unmarked) [Pindolol, reference compound] yielded a change in vivo at 100 mg/kg [1] of -52%.
With `COc1ccc(CCNCC(O)CO/N=C2\CCCC\C2=C/c2ccccc2)cc1OC` (racemic) [Example 7] the ED50 [2] was 70 mg/kg, the “TI (therapeutic index)” value [2] was 14 and the LD50 at 336 h [3] was greater than 1000 mg/kg.
With `OC(CO/N=C1\CCCC\C1=C/c1ccccc1)CN1CCN(c2cccc(Cl)c2)CC1` (racemic) [Example 52, R,S-2-(E)-Phenylmethylene-1-(E)-{3-[4-(3-chlorophenyl)-1-piperazinyl]-2-hydroxy-propoxyimino}-cyclohexane] the LD50 at 336 h [3] was greater than 1000 mg/kg.
For `COc1cccc(/C=C2\CCCC\C2=N/OCC(O)CN2CCN(Cc3ccccc3)CC2)c1` (racemic) [Example 39, R,S-2-(E)-(3-Methoxyphenyl-methylene)-1-(E)-{3-[(4-phenylmethyl)-1-piperazinyl]-2-hydroxy-propoxyimino}-cyclohexane], the LD50 at 336 h [3] was greater than 1000 mg/kg.
In the case of `CCCCCCNCC(O)CO/N=C1\CCCC\C1=C/c1ccccc1` (racemic) [Example 3, R,S-2-(E)-Phenylmethylene-1-(E)-(3-hexylamino-2-hydroxy-propoxyimino)-cyclohexane], the LD50 at 336 h [3] is reported as greater than 1000 mg/kg.
With `COc1ccccc1/C=C1\CCCC\C1=N/OCC(O)CN1CCOCC1` (racemic) [Example 37, R,S-2-(E)-(2-Methoxyphenyl-methylene)-1-(E)-(3-morpholinyl-2-hydroxy-propoxyimino)-cyclohexane] the ED50 [2] was 50 mg/kg, the “TI (therapeutic index)” value [2] was greater than 20 and the LD50 at 336 h [3] was greater than 1000 mg/kg.
For `CC(C)(C)NCC(O)CO/N=C1\CCC\C1=C/c1ccccc1` (racemic) [Example 22, R,S-2-(E)-Phenylmethylene-1-(E)-[3-(1,1-dimethylethylamino)-2-hydroxy-propoxyimino]-cyclopentane], the LD50 at 336 h [3] was 900 mg/kg.
For `OC(CO/N=C1\CCCC\C1=C/c1ccccc1)CN1CCN(c2cccc(C(F)(F)F)c2)CC1` (racemic) [Example 53, R,S-2-(E)-Phenylmethylene-1-(E)-3-[4-(3-trifluoromethyl)-phenyl-1-piperazinyl]-2-hydroxy-propoxyimino-cyclohexane], the LD50 at 336 h [3] was greater than 1000 mg/kg.
In the case of `OC(CNC1CC1)CO/N=C1\CCCC\C1=C/c1ccc(Cl)cc1` (racemic) [Example 27, R,S-2-(E)-(4-Chlorophenyl-methylene)-1-(E)-(3-cyclopropylamino-2-hydroxy-propoxyimino)-cyclohexane], the ED50 [2] is reported as 35 mg/kg, the “TI (therapeutic index)” value [2] is reported as 29 and the LD50 at 336 h [3] is reported as roughly 1000 mg/kg.
In the case of `CCCN(CCC)CC(O)CO/N=C1\CCCC\C1=C/c1ccc(Cl)c(Cl)c1` (racemic) [Example 34, R,S-2-(E)-(3,4-Dichlorophenyl-methylene)-1-(E)-(3-/bis-n-propyl/-amino-2-hydroxy-propoxyimino)-cyclohexane], the ED50 [2] is reported as 145 mg/kg, the “TI (therapeutic index)” value [2] is reported as greater than 7 and the LD50 at 336 h [3] is reported as greater than 1000 mg/kg.
`CC(C)(C)NCC(O)CO/N=C1\CCCC\C1=C/c1ccc(Cl)cc1` (racemic) [Example 31, R,S-2-(E)-(4-Chlorophenyl-methylene)-1-(E)-[3-(1,1-dimethylethylamino)-2'-hydroxy-propoxyimino]-cyclohexane] gave an LD50 at 336 h [3] of roughly 1000 mg/kg.
With `CC(C)N(CC(O)CO/N=C1\CCCCC\C1=C/c1ccccc1)C(C)C` (racemic) [Example 14, R,S-2-(E)-Phenylmethylene-1-(E)-{3-[bis-(1-methylethyl)-amino]-2-hydroxy-propoxyimino}-cycloheptane] the ED50 [2] was 80 mg/kg, the “TI (therapeutic index)” value [2] was 11 and the LD50 at 336 h [3] was 900 mg/kg. It also gave an ED50 [1] of 1.64 mg/kg and a change in vivo at 4 mg/kg [1] of -83%.
In the case of `CC(C)NCC(O)CO/N=C1\CCCC\C1=C/c1ccc(Cl)cc1` (racemic) [Example 28, R,S-2-(E)-(4-Chlorophenyl-methylene)-1-(E)-[3-(1-methylethylamino)-2-hydroxy-propoxyimino]-cyclohexane], the ED50 [2] is reported as 75 mg/kg, the “TI (therapeutic index)” value [2] is reported as 20 and the LD50 at 336 h [3] is reported as 1500 mg/kg.
`CN1CCN(CC(O)CO/N=C2\CCCCC\C2=C/c2ccccc2)CC1` (racemic) [Example 17, R,S-2-(E)-Phenylmethylene-1-(E)-[3-(4-methyl-1-piperazinyl)-2-hydroxy-propoxyimino]-cycloheptane] showed an LD50 at 336 h [3] greater than 1000 mg/kg.
For `CC(C)(C)NCC(O)CO/N=C1\CCCC\C1=C/c1ccccc1` (racemic) [Example 2, R,S-2-(E)-Phenylmethylene-1-(E)-[3-(1,1-dimethylethyl-amino)-2-hydroxy-propoxyimino]-cyclohexane], the LD50 at 336 h [3] was 600 mg/kg and the change in vivo at 4 mg/kg [1] was -43%.
With `COc1ccc(/C=C2\CCCCC\C2=N/OCC(O)CNC2CC2)cc1` (racemic) [Example 42, R,S-2-(E)-(4-Methoxyphenyl-methylene)-1-(E)-(3-cyclopropylamino-2-hydroxy-propoxyimino)-cycloheptane] the ED50 [2] was 14.5 mg/kg, the “TI (therapeutic index)” value [2] was greater than 69 and the LD50 at 336 h [3] was greater than 1000 mg/kg.
Compound `COc1ccc(/C=C2\CCCCC\C2=N/OCC(O)CNC(C)C)cc1` (racemic) [Example 50, R,S-2-(E)-(4-Methoxyphenyl-methylene)-1-(E)-/3-(1-methylethylamino)-2-hydroxy-propoxyimino/-cycloheptane] has an LD50 at 336 h [3] of 1000 mg/kg.
`CCCCNCC(O)CO/N=C1\CCCCCC\C1=C/c1ccccc1` (racemic) [Example 49, R,S-2-(E)-Phenylmethylene-1-(E)-(3-butylamino-2-hydroxypropoxyimino)-cyclooctane] gave an LD50 at 336 h [3] greater than 1000 mg/kg.
`OC(CO/N=C1\CCCC\C1=C/c1ccccc1)CN1CCC(Cc2ccccc2)CC1` (racemic) [Example 54] gave an LD50 at 336 h [3] of 600 mg/kg, an ED50 [1] of 3.47 mg/kg and a change in vivo at 4 mg/kg [1] of -56%.
For `CC(C)N(CC(O)CO/N=C1\CCCCCC\C1=C/c1ccccc1)C(C)C` (racemic) [Example 19, R,S-2-(E)-Phenylmethylene-1-(E)-{3-[bis(1-methylethyl)-amino]-2-hydroxy-propoxyimino}-cyclooctane], the ED50 [2] was 26 mg/kg, the “TI (therapeutic index)” value [2] was 31 and the LD50 at 336 h [3] was 800 mg/kg. It also gave an ED50 [1] of 3.29 mg/kg and a change in vivo at 4 mg/kg [1] of -76%.
With `OC(CO/N=C1\CCCC\C1=C/c1ccccc1)CN1CCCCC1` (racemic) [Example 9, R,S-2-(E)-Phenylmethylene-1-(E)-(3-piperidinyl-2-hydroxypropoxyimino)-cyclohexane] the ED50 [2] was 30 mg/kg, the “TI (therapeutic index)” value [2] was 23 and the LD50 at 336 h [3] was 700 mg/kg.
In the case of `CCCC(C)(COC(N)=O)COC(N)=O` [Meprobamate, reference compound], the ED50 [2] is reported as 260 mg/kg and the “TI (therapeutic index)” value [2] is reported as 4.2.
Work on `OC(CO/N=C1\CCCC\C1=C/c1ccccc1)CN1CCCC1` (racemic) [Example 8, R,S-2-(E)-Phenylmethylene-1-(E)-(3-pyrrolidinyl-2-hydroxy-propoxyimino)-cyclohexane] yielded an LD50 at 336 h [3] of 800 mg/kg.
With `CCCNCC(O)CO/N=C1\CCCC\C1=C/c1c(Cl)cccc1Cl` (racemic) [Example 35, R,S-2-(E)-(2,6-Dichlorophenyl-methylene)-1-(E)-(3-propylamino-2-hydroxy-propoxyimino)-cyclohexane] the ED50 [2] was 11.5 mg/kg, the “TI (therapeutic index)” value [2] was 52 and the LD50 at 336 h [3] was 600 mg/kg. The ED50 [1] was 1.84 mg/kg and the change in vivo at 4 mg/kg [1] was -100%.
In the case of `CC(C)(C)NCC(O)CO/N=C1\CCCC\C1=C/c1ccccc1Cl` (racemic) [Example 23, R,S-(E)-(2-Chlorophenyl-methylene)-1-(E)-[3-(1,1-dimethylethylamino)-2-hydroxy-propoxyimino]-cyclohexane], the ED50 [2] is reported as 16 mg/kg, the “TI (therapeutic index)” value [2] is reported as 8 and the LD50 at 336 h [3] is reported as 130 mg/kg. For the same compound, the ED50 [1] was 0.36 mg/kg and the change in vivo at 4 mg/kg [1] was -83%.
In the case of `Cc1cccc(C)c1OCC(C)N` (centres unmarked) [Mexiletine, reference compound], the change in vivo at 4 mg/kg [1] is reported as -21%.
With `CNC1=Nc2ccc(Cl)cc2C(c2ccccc2)=[N+]([O-])C1` [Chlordiazepoxide, reference compound] the ED50 [2] was 10 mg/kg and the “TI (therapeutic index)” value [2] was 62.
`CC(C)NCC(O)COc1cccc2ccccc12` (centres unmarked) [Propranolol, reference compound] showed an ED50 [1] of 5.81 mg/kg, a change in vivo at 4 mg/kg [1] of -7% and a change in vivo at 100 mg/kg [1] of -50%.
With `C#CC(C)(C)NCC(O)CO/N=C1\CCCCC\C1=C/c1ccccc1` (racemic) [Example 16, R,S-2-(E)-Phenylmethylene-1-(E)-[3-(1,1-dimethylpropin-2-yl)amino-2-hydroxy-propoxyimino]-cycloheptane] the LD50 at 336 h [3] was greater than 1000 mg/kg.
`COc1ccc([C@@H]2Sc3ccccc3N(CCN(C)C)C(=O)[C@@H]2OC(C)=O)cc1` [Dilthiazem, reference compound] showed a change in vivo at 4 mg/kg [1] of -27%.
In the case of `O=C(OC(CO/N=C1\CCCCCC\C1=C/c1ccccc1)CN1CCOCC1)c1ccccc1` (racemic) [Example 69, R,S-2-(E)-Phenylmethylene-1-(E)-[3'-(4-morpholinyl)-2'-benzoyloxy-propoxyimino]-cyclooctane], the LD50 at 336 h [3] is reported as greater than 1000 mg/kg.
